Measured values taken from paper PMC5564600 (Oncotarget, 2017).

Key:
Format in all cases: binding
[1] = molecular target: T1, PIK3C2B (Homo sapiens, UniProt O00750); assay: KINOMEscan, PIK3C2B; conditions: for remaining binding at 1 µM / remaining binding at 10 µM: kinase PIK3C2B; for remaining binding at 1 µM: read-out: % of control at 1 µM; for remaining binding at 10 µM: read-out: % of control at 10 µM
T1 construct: purchased Ambit Biosciences (scanMAXX KINOMEscan)

[2] = molecular target: T2, CLK4 (Homo sapiens, UniProt Q9HAZ1); assay: KINOMEscan, CLK4; conditions: for remaining binding at 1 µM: read-out: % of control at 1 µM
T2 construct: purchased Ambit Biosciences (scanMAXX KINOMEscan)
T2 sequence (Q9HAZ1 whole entry): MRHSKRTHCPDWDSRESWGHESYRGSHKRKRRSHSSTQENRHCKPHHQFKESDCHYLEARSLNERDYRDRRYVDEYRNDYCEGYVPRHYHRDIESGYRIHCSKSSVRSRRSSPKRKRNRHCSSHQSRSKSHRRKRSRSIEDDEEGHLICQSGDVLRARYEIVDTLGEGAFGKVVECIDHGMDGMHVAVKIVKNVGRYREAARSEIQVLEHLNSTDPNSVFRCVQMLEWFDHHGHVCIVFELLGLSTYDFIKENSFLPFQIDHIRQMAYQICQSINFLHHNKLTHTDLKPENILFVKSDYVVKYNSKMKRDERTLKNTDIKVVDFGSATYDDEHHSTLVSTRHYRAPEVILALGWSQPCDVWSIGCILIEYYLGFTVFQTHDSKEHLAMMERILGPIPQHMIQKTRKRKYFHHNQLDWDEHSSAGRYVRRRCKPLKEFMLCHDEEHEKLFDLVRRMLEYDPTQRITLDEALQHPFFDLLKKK

[3] = molecular target: T3, catalytic JH1 domain of JAK2 (Homo sapiens, UniProt O60674); assay: KINOMEscan, JAK2 JH1 domain; conditions: for remaining binding at 1 µM / remaining binding at 10 µM: kinase JAK2(JH1domain-catalytic); for remaining binding at 1 µM: read-out: % of control at 1 µM; for remaining binding at 10 µM: read-out: % of control at 10 µM
T3 construct: the catalytic JH1 domains of JAK1 and JAK2; purchased Ambit Biosciences (scanMAXX KINOMEscan)

[4] = molecular target: T4, ERBB3 (Homo sapiens, UniProt P21860); assay: KINOMEscan, ERBB3; conditions: for remaining binding at 1 µM / remaining binding at 10 µM: ERBB3; for remaining binding at 1 µM: read-out: % of control at 1 µM; for remaining binding at 10 µM: read-out: % of control at 10 µM
T4 construct: purchased Ambit Biosciences (scanMAXX KINOMEscan)

[5] = molecular target: T5, MAP4K2 (Homo sapiens, UniProt Q12851); assay: KINOMEscan, MAP4K2; conditions: for remaining binding at 1 µM / remaining binding at 10 µM: kinase MAP4K2; for remaining binding at 1 µM: read-out: % of control at 1 µM; for remaining binding at 10 µM: read-out: % of control at 10 µM
T5 construct: purchased Ambit Biosciences (scanMAXX KINOMEscan)
T5 sequence (Q12851 1-820): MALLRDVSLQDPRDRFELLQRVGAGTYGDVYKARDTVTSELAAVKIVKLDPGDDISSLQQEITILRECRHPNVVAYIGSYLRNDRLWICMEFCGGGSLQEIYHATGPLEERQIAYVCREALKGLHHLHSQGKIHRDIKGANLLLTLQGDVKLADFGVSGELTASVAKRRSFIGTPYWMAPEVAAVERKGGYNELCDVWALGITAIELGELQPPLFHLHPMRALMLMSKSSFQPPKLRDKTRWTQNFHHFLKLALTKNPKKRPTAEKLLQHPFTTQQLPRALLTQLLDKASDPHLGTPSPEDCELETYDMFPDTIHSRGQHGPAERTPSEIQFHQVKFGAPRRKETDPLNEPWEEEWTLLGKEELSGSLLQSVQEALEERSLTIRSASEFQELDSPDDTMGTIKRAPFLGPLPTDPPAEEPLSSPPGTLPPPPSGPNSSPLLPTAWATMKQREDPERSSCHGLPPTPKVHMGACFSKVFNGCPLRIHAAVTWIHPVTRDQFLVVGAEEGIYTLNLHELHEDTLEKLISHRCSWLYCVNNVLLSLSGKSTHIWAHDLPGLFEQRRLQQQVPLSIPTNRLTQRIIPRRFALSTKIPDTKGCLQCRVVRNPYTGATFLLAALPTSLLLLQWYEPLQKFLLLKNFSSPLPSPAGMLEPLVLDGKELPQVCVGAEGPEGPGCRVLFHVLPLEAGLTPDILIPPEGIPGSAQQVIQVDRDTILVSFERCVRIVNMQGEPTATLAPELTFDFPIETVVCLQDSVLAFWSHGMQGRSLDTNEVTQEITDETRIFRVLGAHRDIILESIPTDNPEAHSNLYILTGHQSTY

[6] = molecular target: T6, CLK1 (Homo sapiens, UniProt P49759); assay: KINOMEscan, CLK1; conditions: for remaining binding at 1 µM: read-out: % of control at 1 µM
T6 construct: purchased Ambit Biosciences (scanMAXX KINOMEscan)
T6 sequence (P49759 whole entry): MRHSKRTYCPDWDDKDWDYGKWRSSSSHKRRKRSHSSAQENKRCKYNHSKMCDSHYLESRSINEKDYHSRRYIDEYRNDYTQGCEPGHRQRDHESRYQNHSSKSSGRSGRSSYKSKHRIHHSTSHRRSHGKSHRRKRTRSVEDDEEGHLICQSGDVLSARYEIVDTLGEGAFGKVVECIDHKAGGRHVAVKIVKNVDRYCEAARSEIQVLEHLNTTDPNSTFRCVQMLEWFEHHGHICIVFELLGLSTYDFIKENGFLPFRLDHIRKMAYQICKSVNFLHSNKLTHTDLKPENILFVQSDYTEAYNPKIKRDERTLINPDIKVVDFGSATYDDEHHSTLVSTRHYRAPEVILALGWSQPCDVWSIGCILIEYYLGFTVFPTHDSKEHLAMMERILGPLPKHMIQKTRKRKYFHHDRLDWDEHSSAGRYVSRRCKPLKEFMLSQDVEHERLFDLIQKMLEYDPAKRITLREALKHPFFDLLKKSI

[7] = molecular target: T7, panel of 442 kinases (Homo sapiens, UniProt P29323); assay: biochemical; conditions: EPHB2; for remaining activity at 1 µM: read-out: % of control at 1 µM
T7 construct: purchased Ambit Biosciences (scanMAXX KINOMEscan)
T7 sequence (P29323 19-1055): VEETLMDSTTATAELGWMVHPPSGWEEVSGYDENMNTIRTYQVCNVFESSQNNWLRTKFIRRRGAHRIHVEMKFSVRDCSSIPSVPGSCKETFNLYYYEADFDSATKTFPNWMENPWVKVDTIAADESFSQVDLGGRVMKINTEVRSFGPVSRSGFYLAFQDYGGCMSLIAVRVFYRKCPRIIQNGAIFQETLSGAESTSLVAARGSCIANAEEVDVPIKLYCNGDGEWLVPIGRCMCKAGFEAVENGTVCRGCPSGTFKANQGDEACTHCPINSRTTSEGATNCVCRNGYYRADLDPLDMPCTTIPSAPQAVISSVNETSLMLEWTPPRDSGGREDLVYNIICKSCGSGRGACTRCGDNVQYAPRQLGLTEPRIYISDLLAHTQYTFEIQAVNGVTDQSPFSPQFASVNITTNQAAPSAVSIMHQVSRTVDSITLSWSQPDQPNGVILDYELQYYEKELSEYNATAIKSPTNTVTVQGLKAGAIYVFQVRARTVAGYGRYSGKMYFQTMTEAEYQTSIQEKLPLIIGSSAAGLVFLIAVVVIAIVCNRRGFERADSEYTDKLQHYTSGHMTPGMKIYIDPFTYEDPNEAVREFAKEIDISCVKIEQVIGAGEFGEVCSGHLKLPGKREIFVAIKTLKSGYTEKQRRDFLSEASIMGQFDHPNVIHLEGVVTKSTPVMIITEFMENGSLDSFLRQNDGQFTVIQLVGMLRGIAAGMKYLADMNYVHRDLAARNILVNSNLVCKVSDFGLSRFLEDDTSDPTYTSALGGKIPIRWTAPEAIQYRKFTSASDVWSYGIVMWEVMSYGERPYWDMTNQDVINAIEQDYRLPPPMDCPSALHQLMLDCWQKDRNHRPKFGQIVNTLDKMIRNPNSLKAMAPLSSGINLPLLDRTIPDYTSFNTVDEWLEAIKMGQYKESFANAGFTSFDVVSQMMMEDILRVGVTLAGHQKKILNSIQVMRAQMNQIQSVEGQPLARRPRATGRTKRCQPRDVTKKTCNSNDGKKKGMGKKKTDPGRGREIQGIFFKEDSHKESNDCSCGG

[8] = molecular target: T8, panel of 442 kinases (Homo sapiens, UniProt Q9H0K1); assay: biochemical; conditions: kinase SIK2; for remaining activity at 1 µM: read-out: SIK2 (% of control at 1 µM)
T8 construct: purchased Ambit Biosciences (scanMAXX KINOMEscan)
T8 sequence (Q9H0K1 whole entry): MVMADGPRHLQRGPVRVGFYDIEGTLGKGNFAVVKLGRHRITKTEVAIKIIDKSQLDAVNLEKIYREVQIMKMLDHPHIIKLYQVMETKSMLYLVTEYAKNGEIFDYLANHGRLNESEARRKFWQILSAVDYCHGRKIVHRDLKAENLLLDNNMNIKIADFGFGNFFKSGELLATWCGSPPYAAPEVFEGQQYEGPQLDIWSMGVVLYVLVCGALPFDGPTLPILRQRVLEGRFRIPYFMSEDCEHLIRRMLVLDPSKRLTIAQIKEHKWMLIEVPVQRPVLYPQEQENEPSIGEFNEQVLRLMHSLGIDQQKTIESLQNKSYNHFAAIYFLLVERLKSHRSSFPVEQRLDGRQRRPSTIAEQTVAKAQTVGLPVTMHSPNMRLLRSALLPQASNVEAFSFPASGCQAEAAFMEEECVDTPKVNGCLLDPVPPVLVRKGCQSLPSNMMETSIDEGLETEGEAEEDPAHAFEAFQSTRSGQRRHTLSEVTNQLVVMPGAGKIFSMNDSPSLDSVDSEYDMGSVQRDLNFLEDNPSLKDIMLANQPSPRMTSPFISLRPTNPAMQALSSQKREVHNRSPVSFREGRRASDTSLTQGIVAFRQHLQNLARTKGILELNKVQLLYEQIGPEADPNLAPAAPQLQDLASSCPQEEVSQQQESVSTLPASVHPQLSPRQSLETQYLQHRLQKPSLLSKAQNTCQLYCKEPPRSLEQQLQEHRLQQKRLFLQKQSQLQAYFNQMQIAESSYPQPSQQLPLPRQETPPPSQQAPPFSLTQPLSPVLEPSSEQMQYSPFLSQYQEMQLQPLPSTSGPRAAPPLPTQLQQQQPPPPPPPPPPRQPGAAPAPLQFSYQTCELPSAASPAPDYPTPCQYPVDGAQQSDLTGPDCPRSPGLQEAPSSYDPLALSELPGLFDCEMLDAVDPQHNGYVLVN

[9] = molecular target: T9, panel of 442 kinases (Homo sapiens, UniProt P08581, M1250T); assay: biochemical; conditions: kinase MET(M1250T); for remaining activity at 1 µM: read-out: % of control at 1 µM
T9 construct: purchased Ambit Biosciences (scanMAXX KINOMEscan)
T9 sequence (P08581 25-1390 M1250T): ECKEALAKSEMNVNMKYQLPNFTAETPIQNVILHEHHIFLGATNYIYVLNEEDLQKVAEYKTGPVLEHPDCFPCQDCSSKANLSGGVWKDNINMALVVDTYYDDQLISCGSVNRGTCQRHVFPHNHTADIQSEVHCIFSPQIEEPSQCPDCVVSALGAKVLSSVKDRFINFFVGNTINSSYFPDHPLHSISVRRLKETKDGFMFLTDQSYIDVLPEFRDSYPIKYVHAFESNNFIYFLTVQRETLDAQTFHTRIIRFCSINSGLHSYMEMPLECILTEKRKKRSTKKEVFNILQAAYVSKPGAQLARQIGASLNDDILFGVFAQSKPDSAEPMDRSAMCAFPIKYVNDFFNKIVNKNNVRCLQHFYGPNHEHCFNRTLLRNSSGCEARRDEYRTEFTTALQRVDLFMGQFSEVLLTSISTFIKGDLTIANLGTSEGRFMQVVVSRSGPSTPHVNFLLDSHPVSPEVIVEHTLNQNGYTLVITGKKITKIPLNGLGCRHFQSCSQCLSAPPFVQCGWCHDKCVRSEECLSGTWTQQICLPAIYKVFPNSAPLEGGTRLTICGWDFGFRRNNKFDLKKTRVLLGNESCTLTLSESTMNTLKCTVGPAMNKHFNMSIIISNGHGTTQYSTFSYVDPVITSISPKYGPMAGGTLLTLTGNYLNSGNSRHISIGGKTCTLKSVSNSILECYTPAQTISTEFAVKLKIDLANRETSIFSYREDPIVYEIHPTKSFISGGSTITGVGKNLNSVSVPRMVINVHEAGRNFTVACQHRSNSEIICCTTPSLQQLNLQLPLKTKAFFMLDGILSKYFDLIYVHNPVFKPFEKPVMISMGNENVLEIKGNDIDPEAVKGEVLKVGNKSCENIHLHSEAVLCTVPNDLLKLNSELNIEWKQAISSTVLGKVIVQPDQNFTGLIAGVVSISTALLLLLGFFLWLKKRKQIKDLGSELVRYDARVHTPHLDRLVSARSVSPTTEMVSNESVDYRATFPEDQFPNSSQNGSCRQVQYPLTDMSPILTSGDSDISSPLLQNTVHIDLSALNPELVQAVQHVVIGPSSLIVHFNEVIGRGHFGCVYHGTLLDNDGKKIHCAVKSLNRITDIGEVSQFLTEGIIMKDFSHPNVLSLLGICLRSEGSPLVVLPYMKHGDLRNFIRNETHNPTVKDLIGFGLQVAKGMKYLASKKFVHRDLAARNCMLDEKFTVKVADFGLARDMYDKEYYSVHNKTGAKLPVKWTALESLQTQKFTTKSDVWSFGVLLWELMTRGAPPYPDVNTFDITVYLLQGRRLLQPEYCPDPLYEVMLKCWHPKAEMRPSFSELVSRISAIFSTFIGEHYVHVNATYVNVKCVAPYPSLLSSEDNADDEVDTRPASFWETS

[10] = 10 µM, read-out: % of control at 10 µM

T1 sequence (O00750 whole entry): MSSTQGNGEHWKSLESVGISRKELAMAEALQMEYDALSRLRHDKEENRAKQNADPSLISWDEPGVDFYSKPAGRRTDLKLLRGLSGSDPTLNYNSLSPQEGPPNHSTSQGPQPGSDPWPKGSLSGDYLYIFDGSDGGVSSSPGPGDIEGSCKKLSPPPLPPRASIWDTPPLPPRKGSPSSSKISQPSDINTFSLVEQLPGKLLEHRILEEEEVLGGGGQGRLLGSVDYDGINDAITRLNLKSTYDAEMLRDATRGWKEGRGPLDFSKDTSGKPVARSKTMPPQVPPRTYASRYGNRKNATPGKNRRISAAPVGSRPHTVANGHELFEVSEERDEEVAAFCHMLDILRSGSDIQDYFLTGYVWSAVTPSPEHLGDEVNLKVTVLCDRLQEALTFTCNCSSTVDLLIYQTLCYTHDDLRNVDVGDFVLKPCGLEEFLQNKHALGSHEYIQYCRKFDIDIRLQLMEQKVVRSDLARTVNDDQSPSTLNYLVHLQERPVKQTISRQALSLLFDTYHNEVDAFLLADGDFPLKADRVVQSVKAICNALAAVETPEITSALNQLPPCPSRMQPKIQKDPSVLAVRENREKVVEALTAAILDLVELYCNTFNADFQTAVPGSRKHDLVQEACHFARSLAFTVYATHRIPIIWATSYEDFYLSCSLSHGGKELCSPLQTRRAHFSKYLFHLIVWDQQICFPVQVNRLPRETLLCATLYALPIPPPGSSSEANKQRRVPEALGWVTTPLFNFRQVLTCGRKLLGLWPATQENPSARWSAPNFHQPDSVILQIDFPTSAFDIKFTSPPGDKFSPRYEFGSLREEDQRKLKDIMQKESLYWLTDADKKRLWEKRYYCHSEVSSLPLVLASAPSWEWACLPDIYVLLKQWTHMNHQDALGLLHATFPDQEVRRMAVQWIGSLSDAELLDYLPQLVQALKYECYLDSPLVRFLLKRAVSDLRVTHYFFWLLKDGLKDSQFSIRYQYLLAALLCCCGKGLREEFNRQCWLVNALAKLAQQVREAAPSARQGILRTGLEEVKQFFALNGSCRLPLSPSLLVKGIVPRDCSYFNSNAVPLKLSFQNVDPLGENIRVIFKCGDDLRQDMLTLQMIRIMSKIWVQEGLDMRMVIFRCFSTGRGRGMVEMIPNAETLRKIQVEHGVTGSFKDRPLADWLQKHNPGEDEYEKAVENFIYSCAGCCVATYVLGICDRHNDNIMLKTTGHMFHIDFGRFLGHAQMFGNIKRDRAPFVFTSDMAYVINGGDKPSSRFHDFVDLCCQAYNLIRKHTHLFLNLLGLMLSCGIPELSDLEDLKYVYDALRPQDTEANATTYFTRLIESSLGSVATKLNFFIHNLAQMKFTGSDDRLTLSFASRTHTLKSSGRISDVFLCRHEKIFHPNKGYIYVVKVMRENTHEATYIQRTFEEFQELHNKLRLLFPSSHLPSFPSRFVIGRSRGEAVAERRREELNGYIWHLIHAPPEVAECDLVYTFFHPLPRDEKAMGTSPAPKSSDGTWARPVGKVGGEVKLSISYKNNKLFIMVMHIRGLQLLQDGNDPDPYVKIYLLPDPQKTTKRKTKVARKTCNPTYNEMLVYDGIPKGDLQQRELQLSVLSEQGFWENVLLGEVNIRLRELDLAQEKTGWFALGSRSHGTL

SMILES: Nc1cc(C(F)(F)F)c(-c2cc(N3CCOCC3)nc(N3CCOCC3)n2)cn1 [Buparlisib]
- remaining binding at 1 µM [1]: 97%
- remaining binding at 10 µM [1]: 100%
- binding to CLK4 ([2]; 10 μM): > 80%
- remaining binding at 1 µM ([2]; CLK4): 38%
- remaining binding at 10 µM ([2]; CLK4, 10 µM, read-out: % of control at 10 µM): 13%
- remaining binding at 1 µM [3]: 63%
- remaining binding at 10 µM [3]: 79%
- remaining binding at 1 µM [4]: 100%
- remaining binding at 10 µM [4]: 90%
- remaining binding at 1 µM [5]: 82%
- remaining binding at 10 µM [5]: 100%
- binding to CLK1 ([6]; 10 μM): > 80%
- remaining binding at 1 µM ([6]; CLK1): 42%
- remaining binding at 10 µM ([6]; CLK1, 10 µM, read-out: % of control at 10 µM): 5.3%
- remaining activity at 1 µM [7]: 82%
- remaining activity at 10 µM [7, 10]: 100%
- remaining activity at 1 µM [8]: 100%
- remaining activity at 10 µM ([8]; 10 µM, read-out: SIK2 (% of control at 10 µM)): 93%
- remaining activity at 1 µM [9]: 92%
- remaining activity at 10 µM [9, 10]: 100%

SMILES: Cn1c(=O)n(-c2ccc(C(C)(C)C#N)cc2)c2c3cc(-c4cnc5ccccc5c4)ccc3ncc21 [Dactolisib, 2-methyl-2-[4-(3-methyl-2-oxo-8-quinolin-3-yl-2,3-dihydroimidazo[4,5-c]quinolin-1-yl)-phenyl] propionitrile]
- inhibition at 1 µM ([1]; 1 μM): > 80%
- remaining binding at 1 µM [1]: 9.9%
- inhibition at 1 µM ([2]; 1 μM): > 80%
- remaining binding at 1 µM ([2]; CLK4): 12%
- inhibition at 1 µM ([3]; 1 μM): > 80%
- remaining binding at 1 µM [3]: 8.2%
- inhibition at 1 µM ([4]; 1 μM): > 80%
- remaining binding at 1 µM [4]: 9.2%
- inhibition at 1 µM ([5]; 1 μM): > 80%
- remaining binding at 1 µM [5]: 0.25%
- inhibition at 1 µM ([6]; 1 μM): > 80%
- remaining binding at 1 µM ([6]; CLK1): 13%
- remaining activity at 1 µM [7]: 100%
- remaining activity at 1 µM [8]: 82%

SMILES: COc1ncc(-c2ccc3nccc(-c4ccnnc4)c3c2)cc1NS(=O)(=O)c1ccc(F)cc1F [Omipalisib]
- off-target binding to PIK3C2B ([1]; 1 μM): non-selective
- remaining binding at 1 µM [1]: 0%
- remaining binding at 1 µM ([2]; CLK4): 100%
- remaining binding at 1 µM [3]: 90%
- remaining binding at 1 µM [4]: 95%
- remaining binding at 1 µM [5]: 100%
- remaining binding at 1 µM ([6]; CLK1): 96%
- remaining activity at 1 µM [7]: 100%
- remaining activity at 1 µM [8]: 100%
- remaining activity at 1 µM [9]: 80%

SMILES: CS(=O)(=O)N1CCN(Cc2cc3nc(-c4cccc5[nH]ncc45)nc(N4CCOCC4)c3s2)CC1 [Pictilisib, 2-(1H-indazol-4-yl)-6-(4-methanesulfonyl-piperazin-1-ylmethyl)-4-morpholin-4-yl-t hieno[3,2-d]pyrimidine]
- off-target activity against PIK3C2B ([1]; 10 μM): active
- remaining binding at 1 µM [1]: 54%
- remaining binding at 10 µM [1]: 0.45%
- remaining binding at 1 µM [3]: 100%
- remaining binding at 10 µM [3]: 26%
- remaining binding at 1 µM [4]: 100%
- remaining binding at 10 µM [4]: 96%
- remaining binding at 1 µM [5]: 100%
- remaining binding at 10 µM [5]: 61%

SMILES: FC(F)c1nc2ccccc2n1-c1nc(N2CCOCC2)nc(N2CCOCC2)n1 [ZSTK474, 2-(difluoromethyl)-1-[4,6-di(4-morpholinyl)-1,3,5-triazin-2-yl]-1H-benzimidazole]
- off-target binding to PIK3C2B ([1]; 1 μM): high binding affinity
- remaining binding at 1 µM [1]: 0.85%
- remaining binding at 1 µM ([2]; CLK4): 96%
- remaining binding at 1 µM [3]: 100%
- remaining binding at 1 µM [4]: 24%
- remaining binding at 1 µM [5]: 85%
- remaining binding at 1 µM ([6]; CLK1): 100%
- remaining activity at 1 µM [7]: 94%
- remaining activity at 1 µM [8]: 78%
- remaining activity at 1 µM [9]: 99%
